According to patent publication US20230416203A1, “POTENT AND SELECTIVE INHIBITORS OF THE CALCIUM-ACTIVATED POTASSIUM CHANNEL, KCA3.1, FOR USE AS PLATFORM THERAPEUTICS” (priority 2020, published 2023):
In brackets after ≈: the same amount, converted by molar mass. Entries after “also recorded” stand apart in the source; their conditions may differ. Where two headings read alike, the source gives them in different places.

Tests used:
[1] = Solubility test (PBS, HPLC-UV); assay type: physicochemical; conditions: kinetic from dmso stock
Procedure: Calibration standards at 1, 5, 10, 50, 100, 200 and 300 μM were prepared in DMSO from a 20 mM stock. […] The plate was covered and shook at 150 rotations per min for 90 min. At the end of 90 min, samples were filtered using MultiScreen HTS vacuum Manifold assembly and the filtrate was collected onto the acceptor plate. An aliquot (150 μL) of the filtrate from the above 96-well acceptor plate was transferred into HPLC vials and analyzed by HPLC-UV. Verapamil, ketoconazole and reserpine were used as high, medium and low soluble reference standards respectively.

[2] = tested on: Iba1+CD11b+ double positive microglia; experiment: Immunohistochemistry analysis on microglia and leukocytes markers in MCAO brains; assay type: in vivo, rats; conditions: 10 mg/kg, day 7, brain areas CA1, CPu, M1 and S1, vs MCAO or vehicle groups
Procedure: The animals were anaesthetized with isoflurane (RWD Life Science), perfused and fixed with 4% PFA (Sinopharm Chemical Reagent). The brain tissues were further soaked in 4% PFA […] at 4° C. overnight and then treated with a gradient of sucrose solutions (20-30%, Sinopharm Chemical Reagent) before being embedded with OCT (Leica) and frozen at −80° C. For immunofluorescence staining, the brain slices from primary somatosensory cortex (S1), primary motor cortex (M1), field CA1 of hippocampus (CA1) and caudate putamen (striatum, CPu) were heated for 30 min and then washed with 0.01 M PBS (pH=7.2-7.4, 5 min×3). After washing, the sections were blocked with 0.3% TritonX-100 (Solarbio) in 10% sheep serum (Solarbio) at RT for 1 h. Following removal of the blocking solution, the brain sections were incubated with primary antibodies Iba1 (Proteintech, Cat.10904-1-AP) and CD11b (Thermo Fisher, Cat. MA5-17857) overnight at 4° C. Following 3 washes with 0.01 M PBS (5 min each), the sections were incubated with Backlight plus secondary antibody (Abcam, Cat. ab150113; Cat.ab150080) at RT for 2 h. After 3 washes, the nuclei were stained with 4′, 6-diamidino-2-phenylindole (DAPI, Beyotime Biotech, Cat. C1006). […] The number of Iba1^+CD11b^+ double positive microglia were analyzed by Image J V1.8.0. […]

[3] = Plasma and brain distribution studies
Procedure: The dosing volume for intraperitoneal administration was 5 mL/kg. Following blood collection, the animals were sacrificed, and their abdominal vena-cava were cut open and whole body were perfused from heart using 10 mL normal saline. The brain samples were collected from a set of three mice at 0.08, 0.25, 0.5, 1, 2, 4, 8 and 10 h. After isolation, the brain samples were rinsed thrice in ice cold normal saline (for 5-10 s/rinse using ˜10-20 mL normal saline in disposable petri dish for each rinse) and dried on blotting paper. The brain samples were homogenized using ice-cold phosphate buffer saline (pH=7.4). The total homogenate volume was three times the tissue weight. All homogenates were stored below −70° C. until bioanalysis. […] Non-Compartmental-Analysis tool of Phoenix WinNonlin® (Version 8.0) was used to assess the pharmacokinetic parameters.

[4] = tested on: middle cerebral artery occlusion (MCAO); experiment: MCAO ischemia-reperfusion model, infarct volume (TTC staining); assay type: in vivo, SD male rats
[5] = tested on: middle cerebral artery occlusion (MCAO); experiment: Neurological behavioral evaluation in MCAO model (18-point system); assay type: in vivo, SD male rats; conditions: 48 h and day 7, rat MCAO, vs Edaravone
From the text: The animals were individually assessed based on the scoring method described in Table 18.

[6] = Plasma and liver studies after 14 days of repeated oral dose; assay type: in vivo, C57/BL6 mice; conditions: C57/BL6, mouse; for Kp at 14 days: liver/plasma, read-out: Liver to Plasma Ratio
[7] = tested on: panel of other molecular targets
Procedure: The results are expressed as a percent inhibition of control specific binding [100-(measured specific binding/control specific binding*100)]. The IC50 values and Hill coefficients (nH) were determined by non-linear regression analysis of the competition curves generated with mean replicate values using Hill equation curve fitting performed with software developed at Cerep (Hill software) and validated by comparison with data generated by the commercial software SigmaPlot® 4.0.

KCa2.3 = target: T1, KCa2.3 (Homo sapiens, UniProt Q9UGI6); experiment: Potassium channels patch-clamp (QPatch), KCa2.3; assay type: cell-based
T1 construct: expressed in transfected cells; host or cells: COS7
Procedure: The effects of Group 4 compounds on related potassium channels were evaluated by patch-clamp using a QPatch HTX automated electrophysiology platform (Sophion, Denmark). The giga-seal and whole-cell requirements for the automated electrophysiology were the following: minimum seal resistance=0.1 GO, holding potential=−80 mV, holding pressure=−20 mbar; and positioning pressure=−70 mbar.

[8] = Plasma protein binding assay (equilibrium dialysis), mouse plasma; assay type: in vitro ADME; conditions: pH 7.4
Procedure: (§1) Human and mouse plasma (150 μL) containing test compound (3 μM, final concentration) and sodium phosphate buffer (150 μL, 100 mM, pH 7.4) were added to the equilibrium dialysis device and equilibrated at 37° C. for 4.5 h with constant shaking. After equilibration, 10 μL of the plasma was taken out from the first half of the well and mixed with 50 μL of blank buffer, and later quenched with 200 μL of 0.05% formic acid in ACN containing 100 ng/mL of Loperamide, Phenacetin & Tolbutamide as internal standards. Similarly, 50 μL of […] was taken from the second half of the well and mixed with 10 μL of blank […] before quenching. […] All samples were centrifuged at 14,000 rpm for 5 min at 4° C. Warfarin and naltrexone were used as positive controls. Supernatant of all samples were analyzed by LC-MS/MS.

[9] = Plasma protein binding assay (equilibrium dialysis), human plasma; assay type: in vitro ADME; conditions: pH 7.4
Procedure: as §1

[10] = male, C57BL/6, mouse, brain, ip, 50 mg/kg
[11] = male, C57BL/6, mouse, plasma, ip, 50 mg/kg

T1 sequence (Q9UGI6 whole entry): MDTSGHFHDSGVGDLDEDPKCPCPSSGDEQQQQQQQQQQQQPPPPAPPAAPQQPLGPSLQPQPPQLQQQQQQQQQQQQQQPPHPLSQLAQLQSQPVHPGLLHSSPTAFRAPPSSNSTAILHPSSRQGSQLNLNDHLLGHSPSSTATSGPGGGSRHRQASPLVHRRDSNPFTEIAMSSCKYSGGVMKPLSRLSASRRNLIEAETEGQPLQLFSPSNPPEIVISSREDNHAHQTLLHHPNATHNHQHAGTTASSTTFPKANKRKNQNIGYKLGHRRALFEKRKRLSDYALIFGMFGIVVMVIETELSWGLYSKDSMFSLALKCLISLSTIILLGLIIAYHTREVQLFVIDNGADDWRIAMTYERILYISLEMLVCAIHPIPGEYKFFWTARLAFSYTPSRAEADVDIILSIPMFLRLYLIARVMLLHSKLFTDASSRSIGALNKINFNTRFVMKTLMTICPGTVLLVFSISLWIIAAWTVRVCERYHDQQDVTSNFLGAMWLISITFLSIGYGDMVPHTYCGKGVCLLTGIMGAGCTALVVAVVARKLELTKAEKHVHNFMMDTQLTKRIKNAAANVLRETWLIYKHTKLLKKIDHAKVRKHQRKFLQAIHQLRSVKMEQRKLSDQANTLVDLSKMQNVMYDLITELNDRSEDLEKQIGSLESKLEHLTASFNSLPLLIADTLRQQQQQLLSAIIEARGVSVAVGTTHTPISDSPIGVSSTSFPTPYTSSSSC

Q: With COC(=O)C1=CNC=C(C(=O)OC)C1c1ccc(F)c(C(F)(F)F)c1 [Compound 103, Dimethyl 4-(4-fluoro-3-(trifluoromethyl)phenyl)-1,4-dihydropyridine-3,5-dicarboxylate] as the molecule, how does the solubility at 90 min ([1]; pH 1.5, aqueous buffer, PBS pH 1.5) read?
A: 54.6 µM (≈ 19.6 µg/mL)

Q: And the solubility at 90 min ([1]; pH 5, aqueous buffer, PBS pH 5.0)?
A: 58.1 µM (≈ 20.9 µg/mL)

Q: And the solubility at 90 min ([1]; pH 7.4, aqueous buffer, PBS pH 7.4)?
A: ≤ 87.4 µM

Q: And the “number of Iba1+CD11b+ double positive activated microglia” value [2]?
A: significantly reduced; also recorded: effectively reduced

Q: And the AUClast ([3]; Brain, IP 50 mg/kg, mice)?
A: 88658.12 ng·h/g

Q: And the Cmax [3, 10]?
A: 26800 ng/g

Q: And the MRT last [3, 10]?
A: 2.09 h

Q: What about the Tmax [3, 10] of the same molecule?
A: 0.25 h

Q: And the half-life [3, 10]?
A: 1.06 h

Q: What about the AUC(0-t) [3, 11] of the same molecule?
A: 20000 ng·h/mL

Q: What about the Cmax [3, 11] of the same molecule?
A: 8540 ng/mL

Q: And the MRT last [3, 11]?
A: 2.02 h

Q: And the Tmax [3, 11]?
A: 0.25 h

Q: And the half-life [3, 11]?
A: 1.63 h

Q: What about the “reduction of infarct volume” value ([4]; 10 mg/kg intraperitoneal twice daily, 7 days, rat MCAO) of the same molecule?
A: ~50%

Q: And the infarct volume ([4]; rat MCAO 60 min, 7 days reperfusion, vs vehicle and Edaravone 5 mg/kg)?
A: more effective than Edaravone; also recorded: effectively reduced infarct volume

Q: What about the neurological behavioral scores [5] of the same molecule?
A: improves neurological behavior scores more effectively than Edaravone; also recorded: improved neurological behavioral scores

Q: And the Kp at 14 days ([6]; 25 mg/kg BID oral 14 days, Female mice)?
A: 85.6

Q: What about the Kp at 14 days ([6]; 25 mg/kg BID oral 14 days, Male mice) of the same molecule?
A: 36

Q: What about the Kp at 14 days ([6]; 50 mg/kg BID oral 14 days, Female mice) of the same molecule?
A: 31.9

Q: What about the Kp at 14 days ([6]; 50 mg/kg BID oral 14 days, Male mice) of the same molecule?
A: 19.6

Q: And the concentration at 14 days ([6]; liver, 25 mg/kg BID oral 14 days, Female mice, read-out: Average Concentration Liver)?
A: 8420 ng/g

Q: And the concentration at 14 days ([6]; liver, 25 mg/kg BID oral 14 days, Male mice, read-out: Average Concentration Liver)?
A: 10100 ng/g

Q: What about the concentration at 14 days ([6]; liver, 50 mg/kg BID oral 14 days, Female mice, read-out: Average Concentration Liver) of the same molecule?
A: 12100 ng/g

Q: What about the concentration at 14 days ([6]; liver, 50 mg/kg BID oral 14 days, Male mice, read-out: Average Concentration Liver) of the same molecule?
A: 17500 ng/g

Q: And the concentration at 14 days ([6]; plasma, 25 mg/kg BID oral 14 days, Female mice, read-out: Average Concentration Plasma)?
A: 100 ng/mL

Q: And the concentration at 14 days ([6]; plasma, 25 mg/kg BID oral 14 days, Male mice, read-out: Average Concentration Plasma)?
A: 297 ng/mL

Q: What about the concentration at 14 days ([6]; plasma, 50 mg/kg BID oral 14 days, Female mice, read-out: Average Concentration Plasma) of the same molecule?
A: 401 ng/mL

Q: And the concentration at 14 days ([6]; plasma, 50 mg/kg BID oral 14 days, Male mice, read-out: Average Concentration Plasma)?
A: 929 ng/mL

Q: And the “selectivity for KCa3.1 over other channels and a panel of ~100 molecular targets” value [7]?
A: > 1000 fold

Q: With COC(=O)C1=C(C)NC(C)=C(C(=O)OC)C1c1ccc(F)c(C(F)(F)F)c1 [Compound 101] as the molecule, how does the IC50 (KCa2.3) read?
A: 8 µM

Q: What about the fraction unbound at 4.5 h, 3 μM [8] of the same molecule?
A: 0.0088

Q: And the fraction unbound at 4.5 h, 3 μM [9]?
A: 0.0073
